# According to ChEMBL document CHEMBL1136841, “Discovery of 2-(alpha-methylbenzylamino) pyrazines as potent Type II inhibitors of FMS” (Bioorg Med Chem Lett, 2009):
# Assays:
# [1] = test system: Rattus norvegicus; assay: Half life in rat at 5 mg/kg, iv; assay type: ADME, organism-based; parameters: dose 5 mg/kg, route intravenous; conditions: in vivo
# [2] = test system: Rattus norvegicus; assay: Apparent volume of distribution in rat at 5 mg/kg, iv; assay type: ADME, organism-based; parameters: dose 5 mg/kg, route intravenous; conditions: in vivo
structure (smiles),measurement,setting,value
Cc1cccc(C(=O)Nc2cccc([C@H](C)Nc3cncc(Cl)n3)c2)c1,t1/2,[1],5.9 h
same,Vz,[2],30.2 L/kg
